Test results as given in PubChem BioAssay AID687022 (Broad Institute, 2013).
Activity calls are given as the source filed them.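 The calls were made as follows: active = Fitted curve of melting temperature shift crosses the 1.0 threshold at or below the sample's highest valid tested concentration; inconclusive = Flat fit with activity 30 to 70, or invalid fit; inactive = Opposite direction, flat within 30, or no crossing.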

Target: Fibroblast growth factor 22 (Homo sapiens) (UniProt Q9HCT0)
Assay: FGF22 ligand-induced thermal stabilization – biophysical, thermal shift, cherry-pick, FGF22 synaptogenesis inhibitor project, dose response (AID 687022)
Conditions: recombinant FGF22 thermal shift, SYPRO orange melting

Sequence of Fibroblast growth factor 22 (Homo sapiens) (Q9HCT0 whole entry, looked up): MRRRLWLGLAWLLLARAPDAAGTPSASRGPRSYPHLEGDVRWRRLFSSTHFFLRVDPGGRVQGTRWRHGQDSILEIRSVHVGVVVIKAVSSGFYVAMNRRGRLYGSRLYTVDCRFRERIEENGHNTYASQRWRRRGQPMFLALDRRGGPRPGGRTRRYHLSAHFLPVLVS

CSc1ccc(/C=N/NC(=O)c2ccc3nc[nH]c3c2)cc1
AbsAC1 (concentration giving Tm-shift threshold 1.0): 1.58 µM

COc1ccc(-c2ccc([C@H]3[C@@H](CO)N4CCCCN(C(=O)c5ccc6c(c5)OCO6)C[C@H]34)cc2)cc1
AbsAC1 (concentration giving Tm-shift threshold 1.0): 15.2 µM

Cc1ccsc1C(=O)NNC(=O)c1ccc(NS(=O)(=O)c2cccs2)cc1
AbsAC1 (concentration giving Tm-shift threshold 1.0): 11.6 µM

O=C(N/N=C/c1c[nH]c2ccccc12)c1cccs1
AbsAC1 (concentration giving Tm-shift threshold 1.0): 2.71 µM

C/C(=N\NC(=O)COc1ccc(C)cc1C(C)C)c1cc2ccccc2o1
AbsAC1 (concentration giving Tm-shift threshold 1.0): 20.9 µM

CCN1C/C(=C/c2cccs2)c2nc3ccccc3c(C(=O)O)c2C1
AbsAC1 (concentration giving Tm-shift threshold 1.0): 3.02 µM

COc1ccc(-c2csc(NC(=O)CN3C(=O)C4CCCCC4C3=O)n2)c(OC)c1 (centres undefined)
AbsAC1 (concentration giving Tm-shift threshold 1.0): 14.7 µM

O=c1c2cc([N+](=O)[O-])cc([N+](=O)[O-])c2[nH]n1-c1ccccc1
AbsAC1 (concentration giving Tm-shift threshold 1.0): 4.84 µM

COc1ccc(NC(=O)COC(=O)Cc2c[nH]c3ccccc23)cc1Cl
AbsAC1 (concentration giving Tm-shift threshold 1.0): 2.76 µM

COc1cc(NC(=O)c2cnc(N)s2)cc(C(=O)Nc2cccc(C(F)(F)F)c2)c1
AbsAC1 (concentration giving Tm-shift threshold 1.0): 2.42 µM

C[C@@H]1CN([C@H](C)CO)S(=O)(=O)c2ccc(C3=CCCC3)cc2O[C@@H]1CN(C)C(=O)Nc1ccc2c(c1)OCO2
AbsAC1 (concentration giving Tm-shift threshold 1.0): 20.2 µM

CS(=O)(=O)N1CC(=O)N2[C@H](CO)[C@@H](c3ccc(C#CCc4ccccc4)cc3)[C@H]2C1
AbsAC1 (concentration giving Tm-shift threshold 1.0): 37.5 µM

N/C(=N\OCC(=O)Nc1ccc(F)c(Cl)c1)c1ccccc1
AbsAC1 (concentration giving Tm-shift threshold 1.0): 4.58 µM

O=c1c(O)c(-c2cc(O)c(O)c(O)c2)oc2cc(O)cc(O)c12
AbsAC1 (concentration giving Tm-shift threshold 1.0): 4.37 µM

CC1(C(=O)NS(=O)(=O)c2ccc(Cl)cc2)CCN1C(=O)Cc1ccc(Cl)cc1Cl (centres undefined)
AbsAC1 (concentration giving Tm-shift threshold 1.0): > 10 µM (inactive)

CCOC(=O)c1sc(NC(=O)Nc2ccccc2)cc1C
AbsAC1 (concentration giving Tm-shift threshold 1.0): 10.2 µM

COc1ccc2o/c(=N\O)c(C(=O)Nc3ccc(C)cc3)cc2c1
AbsAC1 (concentration giving Tm-shift threshold 1.0): 28 µM

O=[N+]([O-])c1ccc(Nc2ccccc2)nc1
AbsAC1 (concentration giving Tm-shift threshold 1.0): 5.31 µM

Cc1nn(-c2ccccc2)c(C)c1/C=N/NC(=O)c1cc(-c2cccs2)[nH]n1
AbsAC1 (concentration giving Tm-shift threshold 1.0): 8.19 µM

Cc1noc(NS(=O)(=O)c2ccc(NC(=O)c3cccc(S(=O)(=O)N(C)c4ccccc4)c3)cc2)c1C
AbsAC1 (concentration giving Tm-shift threshold 1.0): 4.7 µM

O=C(Nc1ccc(S(=O)(=O)N2CCCC2)cc1)c1ccccc1
AbsAC1 (concentration giving Tm-shift threshold 1.0): 8.57 µM

COc1cc(/C=N/NC(=O)c2[nH]nc3c2CCc2ccccc2-3)ccc1O
AbsAC1 (concentration giving Tm-shift threshold 1.0): 6.1 µM

O=C(O)c1ccccc1NS(=O)(=O)c1ccc2ccccc2c1
AbsAC1 (concentration giving Tm-shift threshold 1.0): 4.33 µM

O=C(C[C@H]1CC[C@@H]2[C@H](COC[C@H](O)CN2S(=O)(=O)c2cccc(Cl)c2)O1)Nc1ccccc1
AbsAC1 (concentration giving Tm-shift threshold 1.0): 1.93 µM

Nc1nonc1-n1nnc(C(=O)N/N=C/c2cccnc2)c1CSc1ccc(Cl)cc1
AbsAC1 (concentration giving Tm-shift threshold 1.0): 3.46 µM

Cc1cccc(S(=O)(=O)N2C[C@H](O)COC[C@H]3O[C@H](CC(=O)Nc4ccccc4)CC[C@@H]32)c1
AbsAC1 (concentration giving Tm-shift threshold 1.0): 7.19 µM

COc1c(O)ccc(/C=C(\C#N)c2nc3ccccc3[nH]2)c1[N+](=O)[O-]
AbsAC1 (concentration giving Tm-shift threshold 1.0): 7.61 µM

Cn1c(C(=O)NCCc2c[nH]c3ccccc23)cc2sccc21
AbsAC1 (concentration giving Tm-shift threshold 1.0): 2.76 µM

CCOc1ccc(N2C(=O)C(CC(=O)Nc3ccccc3)N(Cc3ccccn3)C2=S)cc1 (centres undefined)
AbsAC1 (concentration giving Tm-shift threshold 1.0): 4.24 µM

CCOc1ccc(N2C(=O)C(CC(=O)Nc3ccc(F)cc3)N(Cc3ccccn3)C2=S)cc1 (centres undefined)
AbsAC1 (concentration giving Tm-shift threshold 1.0): 9.4 µM

CCC(C)n1c(O)c(C(c2ccccn2)c2c(O)n(C(C)CC)c(=S)[nH]c2=O)c(=O)[nH]c1=S (centres undefined)
AbsAC1 (concentration giving Tm-shift threshold 1.0): 20.7 µM

COc1ccc(-c2nc(-c3ccc(O)cc3O)cs2)cc1OC
AbsAC1 (concentration giving Tm-shift threshold 1.0): 5.56 µM

O=C(NCC[C@@H]1CC[C@@H](NC(=O)Nc2cc(F)ccc2F)[C@@H](CO)O1)Nc1ccc(F)cc1
AbsAC1 (concentration giving Tm-shift threshold 1.0): 18.1 µM

O=C(N/N=C/c1ccc(Cl)cc1)c1ccc2nc[nH]c2c1
AbsAC1 (concentration giving Tm-shift threshold 1.0): 2.95 µM

O=C(O)c1cccc(NS(=O)(=O)c2ccc(-c3ccc(S(=O)(=O)Nc4cccc(C(=O)O)c4)cc3)cc2)c1
AbsAC1 (concentration giving Tm-shift threshold 1.0): 1.2 µM

O=C(Nc1nc(-c2ccccn2)cs1)c1cccc(S(=O)(=O)N2CCOCC2)c1
AbsAC1 (concentration giving Tm-shift threshold 1.0): 9.23 µM

Cc1ccc(OCCCC(=O)Nc2ccc(S(=O)(=O)N3CCOCC3)cc2)cc1
AbsAC1 (concentration giving Tm-shift threshold 1.0): 2.45 µM

Cc1cc(C(=O)N/N=C/c2c[nH]c3ccccc23)cs1
AbsAC1 (concentration giving Tm-shift threshold 1.0): 2.23 µM

O=C(N/N=C/c1ccsc1)c1c[nH]c2ccccc12
AbsAC1 (concentration giving Tm-shift threshold 1.0): 17.9 µM

O=C(COc1ccc([N+](=O)[O-])cc1)Nc1cccc(C(=O)Nc2ccccc2C(=O)O)c1
AbsAC1 (concentration giving Tm-shift threshold 1.0): 3.74 µM

COc1ccc(OC)c(Nc2ccc(Nc3cc(OC)ccc3OC)nn2)c1
AbsAC1 (concentration giving Tm-shift threshold 1.0): 8.4 µM

Cc1ccc2nc(-c3ccc(NC(=O)COCC(=O)O)cc3)sc2c1
AbsAC1 (concentration giving Tm-shift threshold 1.0): 3.64 µM

COc1ccc(/C(=N\Nc2ccccc2C(=O)O)c2ccccc2)cc1
AbsAC1 (concentration giving Tm-shift threshold 1.0): > 19.5 µM (inactive)

COC(=O)CN1C(=S)N(c2ccc(Cl)cc2)C(=O)C1CC(=O)Nc1ccc(F)cc1 (centres undefined)
AbsAC1 (concentration giving Tm-shift threshold 1.0): 6.03 µM

Cc1ccc(NC(=O)O/N=C/c2cccc([N+](=O)[O-])c2)cc1
AbsAC1 (concentration giving Tm-shift threshold 1.0): 17.8 µM

COc1ccc(-c2nc3ccc([N+](=O)[O-])cc3[nH]2)cc1
AbsAC1 (concentration giving Tm-shift threshold 1.0): 1.99 µM

CC(=O)c1ccc(NC(=O)c2noc(C(C)C)c2[N+](=O)[O-])cc1
AbsAC1 (concentration giving Tm-shift threshold 1.0): 3.85 µM

COc1ccc(CN2C(=O)N(c3ccc(OC)cc3)C(=O)C2CC(=O)Nc2ccccc2)cc1 (centres undefined)
AbsAC1 (concentration giving Tm-shift threshold 1.0): 6.06 µM

O=C(CN(Cc1ccccc1)S(=O)(=O)c1ccccc1)N/N=C/c1ccccc1C(=O)O
AbsAC1 (concentration giving Tm-shift threshold 1.0): 18.9 µM

CCc1nnc(NS(=O)(=O)c2ccc(NC(=O)c3ccc(Br)cc3)cc2)s1
AbsAC1 (concentration giving Tm-shift threshold 1.0): 5.81 µM

CCOc1ccc(NS(=O)(=O)c2ccc(C(=O)NNC(=O)c3ccccc3O)cc2)cc1
AbsAC1 (concentration giving Tm-shift threshold 1.0): > 38 µM (inactive)

Cc1ccc(S(=O)(=O)NCCC(=O)Nc2ccc(C)c(Cl)c2)cc1C
AbsAC1 (concentration giving Tm-shift threshold 1.0): 4.71 µM

CC(C)c1ccc(-n2c(O)c(/C=N/NC(=O)c3ccccc3O)c(=O)[nH]c2=S)cc1
AbsAC1 (concentration giving Tm-shift threshold 1.0): 3.91 µM

O=C(Nc1ccccc1)O/N=C/c1ccc(F)cc1
AbsAC1 (concentration giving Tm-shift threshold 1.0): 20.3 µM

CC(C)CC(=O)n1sc(NC(=O)c2ccccc2)nc1=O
AbsAC1 (concentration giving Tm-shift threshold 1.0): 6.61 µM

O=C(N/N=C\c1cccnc1)c1cc(-c2ccc(Cl)s2)[nH]n1
AbsAC1 (concentration giving Tm-shift threshold 1.0): > 38 µM (inactive)

COc1ccc2cc(CCNC(=O)c3cc4ccccc4o3)c(=O)[nH]c2c1
AbsAC1 (concentration giving Tm-shift threshold 1.0): 11.3 µM

COc1ccc(N2C(=O)C(CC(=O)Nc3ccccc3)N(Cc3ccccn3)C2=S)cc1 (centres undefined)
AbsAC1 (concentration giving Tm-shift threshold 1.0): 9.43 µM

CC(=O)c1ccc(NC(=O)Nc2cccnc2)cc1
AbsAC1 (concentration giving Tm-shift threshold 1.0): 7.05 µM

O=C(C[C@@H]1CC[C@@H]2[C@H](COC[C@@H](O)CN2S(=O)(=O)c2cccc(F)c2)O1)Nc1ccc(-c2ccccc2)cc1
AbsAC1 (concentration giving Tm-shift threshold 1.0): 22.3 µM

COc1ccc(N2C(=O)C(CC(=O)Nc3ccccc3)N(Cc3ccc4c(c3)OCO4)C2=O)cc1 (centres undefined)
AbsAC1 (concentration giving Tm-shift threshold 1.0): 6.04 µM

O=[N+]([O-])c1cc(CS(=O)(=O)Oc2ccc(Cl)cc2)c(O)c([N+](=O)[O-])c1
AbsAC1 (concentration giving Tm-shift threshold 1.0): > 5 µM (inactive)

O=[N+]([O-])c1ccc(N/N=C/c2ccc[nH]2)cc1
AbsAC1 (concentration giving Tm-shift threshold 1.0): 8.39 µM

O=S(=O)(Nc1cc(Cl)ccc1-n1cncn1)c1ccc(F)cc1
AbsAC1 (concentration giving Tm-shift threshold 1.0): 15.2 µM

O=C1C(=O)C(c2ccccc2)C(=O)C1c1ccccc1 (centres undefined)
AbsAC1 (concentration giving Tm-shift threshold 1.0): 10.7 µM

Cc1ccc(NC(=O)CN2C(=O)NC(Cc3c[nH]c4ccccc34)C2=O)cc1 (centres undefined)
AbsAC1 (concentration giving Tm-shift threshold 1.0): 16.2 µM

Cc1cccc(OC(C)C(=O)Nc2ccc3c(c2)OCCO3)c1 (centres undefined)
AbsAC1 (concentration giving Tm-shift threshold 1.0): 15.1 µM

CCC(=O)Nc1nc(C)c(-c2csc(Nc3ccccn3)n2)s1
AbsAC1 (concentration giving Tm-shift threshold 1.0): 4.91 µM

O=C(O)C[C@@H]1C[C@H]2c3cc(NC(=O)Nc4ccc(C(F)(F)F)cc4)ccc3O[C@H]2[C@@H](CO)O1
AbsAC1 (concentration giving Tm-shift threshold 1.0): > 10 µM (inactive)

COc1cc(OC)cc(C(=O)Nc2ccc(S(=O)(=O)Nc3nc(C)cc(C)n3)cc2)c1
AbsAC1 (concentration giving Tm-shift threshold 1.0): 15.5 µM

COc1cccc(NC(=O)CN(C)C(=O)c2ccc(N3CCCCC3)c([N+](=O)[O-])c2)c1
AbsAC1 (concentration giving Tm-shift threshold 1.0): 11.4 µM

COc1ccc(C#Cc2ccc3c(c2)O[C@H](CN(C)S(=O)(=O)c2ccccc2F)[C@@H](C)CN([C@@H](C)CO)S3(=O)=O)cc1
AbsAC1 (concentration giving Tm-shift threshold 1.0): 14.7 µM

Cc1ccc(CCNc2ncnc(Cl)c2N)cc1
AbsAC1 (concentration giving Tm-shift threshold 1.0): 6.55 µM

CCN1C(=O)C(CC(=O)Nc2ccc(OC)cc2)N(Cc2ccc3c(c2)OCO3)C1=S (centres undefined)
AbsAC1 (concentration giving Tm-shift threshold 1.0): 4.05 µM

NS(=O)(=O)c1cc(C(=O)NC2CCSc3ccccc32)ccc1Cl (centres undefined)
AbsAC1 (concentration giving Tm-shift threshold 1.0): 9.54 µM

COc1ccc(C)cc1NS(=O)(=O)c1ccc(NS(=O)(=O)c2ccc(NC(C)=O)cc2)cc1
AbsAC1 (concentration giving Tm-shift threshold 1.0): 3.7 µM

O=C(NCCc1c[nH]c2ccccc12)c1ccc(Cl)cc1
AbsAC1 (concentration giving Tm-shift threshold 1.0): 2.49 µM

C[C@@H]1CN([C@@H](C)CO)S(=O)(=O)c2ccc(-c3ccncc3)cc2O[C@@H]1CN(C)C(=O)Nc1ccc(C(F)(F)F)cc1
AbsAC1 (concentration giving Tm-shift threshold 1.0): 1.96 µM

CC(=O)Nc1ccc(S(=O)(=O)Nc2nc3ccccc3nc2Nc2cccc(S(N)(=O)=O)c2)cc1
AbsAC1 (concentration giving Tm-shift threshold 1.0): 12.7 µM

O=C(CNC(=O)c1ccc(S(=O)(=O)N2CCCC2)cc1)N/N=C/c1ccc(F)cc1
AbsAC1 (concentration giving Tm-shift threshold 1.0): 16.5 µM

O=Cc1cc(OCc2ccccc2)ccc1[B-](F)(F)F
AbsAC1 (concentration giving Tm-shift threshold 1.0): 4.64 µM

COc1ccc(/C(O)=C/C(=O)C(=O)NNC(=O)c2ccccc2)cc1
AbsAC1 (concentration giving Tm-shift threshold 1.0): 31.6 µM

CCOC(=O)c1ccc(S(=O)(=O)Nc2cc(C(=O)O)ccc2Cl)cc1
AbsAC1 (concentration giving Tm-shift threshold 1.0): 26.2 µM

O=C(O)Cn1cc(/C=N/NC(=O)c2cc3cc(Br)ccc3o2)c2ccccc21
AbsAC1 (concentration giving Tm-shift threshold 1.0): 6.74 µM
